Patent US20250269046A1, “CELLULAR UPTAKE OF LARGE BIOMOLECULES ENABLED BY CELL-SURFACE-REACTIVE CELL-PENETRATING PEPTIDE ADDITIVES” (FORSCHUNGSVERBUND BERLIN E.V., priority 2021, published 2025)
AEEA = NCCOCCOCC(=O)O

Experiments:
Assay type in all cases: cell-based
HeLa CLL-2 cells = assay: WST-1 cell viability assay; settings: 10 μM
Description: Absorbance at 440 nm is indicative of cellular metabolic activity in the processing of WST-1 to the absorbing Formazan. […] The cells were treated with either 5 μM NLS-mCherry-R10 II in DMEM alone (lower panel) or with 10 μM TNB-R10 5 in DMEM (upper panel). After one-hour incubation, cells were washed again in DMEM and treated with 5 μM Calcein AM in DMEM. The morphology of the cells as shown in the differential interference contrast (DIC) images is also unaffected. Scale bars 50 μm. c, Co-delivery of NLS-mCherry-R10 II in presence of Sytox Blue dead cell stain with or without added TNB-R10 5. Scale bars 20 μm.

cells [1] = assay: Cellular uptake of mCherry variants (K10, exR10, R5, R8) with or without TNB-R10 5
Text: Most of our findings point to an energy-independent mode of uptake, but to probe whether TNB-R10 5 can also lead to endosomal leakage of an entrapped cargo, the inventors used peptide 5 on cells in combination with an mCherry variant (NLS-mCherry-K10 Ilil) that had been modified with a K10 peptide (via maleimide chemistry, see FIG. 8).
The inventors also tested if recombinantly expressed CPP-fusion proteins can be delivered, as these require much less equipment and effort to produce.
In the same vein, the inventors also made mCherry variants modified with R5 and R8 peptides and co-delivered them into cells with TNB-R10 5 (FIGS. 36-37).

HeLa Kyoto cells [2] = assay: Quantitative microscopy of nuclear mCherry fluorescence after co-delivery with R10-peptides; settings: 5 μM mCherry-R10 conjugate II with additive
Description: To further evaluate the high efficiency of the CPP-peptide additives 1 and 2 in the additive protocol and to probe the impact of the N-terminal thiol functionality, the inventors synthesized additional linear CPPs 3-5 with different thiol derivatives (FIG. 2a). We then co-delivered 5 μM of CPP-conjugates of mCherry either linked to a linear (11) or cyclic R10 (1) (as above in FIG. 1 d-e) together with the newly synthesized peptides 1-5 into HeLa Kyoto cells and used microscopy to measure both nuclear and total fluorescence (representative pictures for all tested conditions in FIG. 12). Thereby, the inventors quantified the desirable delivery to the nucleus and nucleoli (FIG. 2a), and also the amount of unwanted endosomal entrapment (FIG. 13, see example 6 with supporting methods and general methods for details).
Cell culturing is described in the supplementary methods, along with a list of cell lines used in this study. For microscopy experiments, 20′000 cells (10′000 in the case of the GFP-PCNA HeLa Kyoto cell line^7) were seeded into the wells of a 96-well glass bottom plate. The cells were left to adhere and grow for 24 hours at 37° C. with 5% CO2. For 37° C. experiments, the cells were washed once with DMEM before addition of the protein samples in DMEM. The cells were incubated for 1 hour at 37° C. The cells were then washed three times with DMEM with 10% fetal bovine serum (FBS). […] For the quantitative microscopy experiments, the cells were fixed using 4% PFA in PBS for 30 minutes at room temperature after washing.
Quantification of cellular uptake was done using a script for FIJI, see section “Quantification Script”. […] The red fluorescence channel was background subtracted and the red fluorescence within the nuclear mask and outside of it was quantified. Nuclear fluorescence was either normalized to the nuclear area (absolute fluorescence graph in FIG. 2) or to the sum of nuclear and outside fluorescence (relative fluorescence graph in SI FIG. 6). Pearson's correlation coefficient was calculated using the Coloc2 tool in Fiji.

cells [3] = assay: Uptake of NLS-mCherry-R10 II with additional CPP in presence of serum; settings: for co-delivery efficiency in presence of serum: 37° C.
Description: Scale bars 20 μm. b, Quantification of relative nuclear fluorescence intensities from microscopy pictures. n.s.=not significant, ***=P<0.0005.
Methods of cargo delivery that rely on endosomal escape are often susceptible to the presence of serum, as they require effective endocytosis of both the cargo and the endosomolytic agent (Erazo-Oliveras, A. et al. Protein delivery into live cells by incubation with an endosomolytic agent. Nat Methods 11, 861-867, doi:10.1038/nmeth.2998 (2014)). The inventors hypothesized that peptide 5 would likely react with thiols in the serum, but the co-delivery with 2 (Cys-R10) should still function. […] Reduction in efficiency in presence of large amounts of serum may be due to the thiols in serum or the unspecific binding of CPPs to serum proteins (Lattig-Tunnemann, G. et al. Backbone rigidity and static presentation of guanidinium groups increases cellular uptake of arginine-rich cell-penetrating peptides. Nat Commun 2, 453, doi:10.1038/ncomms1459 (2011)).

cells [4] = assay: Uptake of NLS-mCherry-R10 and Alexa647-Transferrin with endocytosis inhibitors; settings: NLS-mCherry-R10 II 5 μM, additive 5 μM, 37° C.; sodium azide, dynasore, pitstop 2
Description: NLS-mCherry-R10 II at a 5 μM concentration was added to cells in combination with 25 μg/mL Alexa647-Transferrin (Invitrogen) as endocytosis control. Where indicated, 5 μM of the Cys-R10 peptide 2 were added to induce nucleolar delivery of the mCherry.

HeLa Kyoto cells [5] = assay: Cellular uptake of CPP-bearing cargoes with or without unbound CPP additive, confocal microscopy
Description: To evaluate the concentration, temperature and cargo-size dependency of added arginine-rich peptides to mediate cytosolic delivery, the inventors chose three distinct cargoes to transport: the organic fluorophore Tetramethylrhodamine (TAMRA, ˜450 Da), the camelid-derived anti-GFP nanobody GBP1 (˜14 kDa) and the fluorescent protein mCherry with a nuclear localization signal (NLS-mCherry, ˜28 kDa). […] We then applied all of the synthesized cargoes to HeLa Kyoto cells (expressing nuclear GFP-PCNA (Leonhardt, H. et al. Dynamics of DNA replication factories in living cells. J Cell Biol 149, 271-280, doi:10.1083/jcb.149.2.271 (2000). Chagin, V. O. et al. 4D Visualization of replication foci in mammalian cells corresponding to individual replicons. Nat Commun 7, 11231, doi:10.1038/ncomms11231 (2016)) as antigen for the nanobody), at both 37 and 4° C.
For microscopy experiments, 20′000 cells (10′000 in the case of the GFP-PCNA HeLa Kyoto cell line^7) were seeded into the wells of a 96-well glass bottom plate. The cells were left to adhere and grow for 24 hours at 37° C. with 5% CO2. For 37° C. experiments, the cells were washed once with DMEM before addition of the protein samples in DMEM. The cells were incubated for 1 hour at 37° C. The cells were then washed three times with DMEM with 10% fetal bovine serum (FBS). Cells were generally imaged live with incubation at 37° C. and 5% CO2. For the quantitative microscopy experiments, the cells were fixed using 4% PFA in PBS for 30 minutes at room temperature after washing.
For 4° C. experiments, the cells were pre-chilled at 4° C. for 1 hour. The cells were then washed with cold DMEM and the proteins were added in cold DMEM to the cells. The cells were incubated at 4° C. for 1 hour. Afterwards, the cells were washed thrice with cold DMEM with 10% FBS, before fixation with 4% PFA in PBS for 30 minutes at room temperature.
Confocal microscopy images were acquired on a Nikon-CSU spinning disc microscope with an CSU—X1 (Andor) and a live cell incubation chamber (OKOlab).

HeLa CCL-2 cells = assay: Cre Stoplight 2.4 reporter, delivery of Cre-exR8, flow cytometry and microscopy
Text: To challenge the delivery protocol, the inventors expressed and purified Cre recombinase fused to a C-terminal R8 peptide (Cre-exR8, characterization in FIG. 39). Fusions of Cre recombinase with the arginine-rich HIV TAT peptide have been previously reported to aid in cell uptake (Peitz, M., Pfannkuche, K., Rajewsky, K. & Edenhofer, F. Ability of the hydrophobic FGF and basic TAT peptides to promote cellular uptake of recombinant Cre recombinase: a tool for efficient genetic engineering of mammalian genomes. Proc Natl Acad Sci USA 99, 4489-4494, doi:10.1073/pnas.032068699 (2002)).
For the Cre recombinase experiments, 200′000 cells were seeded in each well of a 12-well plate. The cells were incubated for 24 hours at 37° C. to settle, then transfected with the reporter plasmid (Cre Stoplight 2.4) using Lipofectamine 2000. The cells were incubated for another 24 hours, then treated with Cre recombinase (or medium) in DMEM with 5% FCS and incubated for 24 more hours. Microscopy pictures were then taken, and the cells were detached with accutase, dead cells stained with DAPI and all cells measured on a LSRFortessa (BD Biosciences, USA) flow cytometer. […] At least 10′000 cells were counted for each condition. The gating strategy is illustrated in FIG. 41.

[6] = system: accessible cell-surface thiols; assay: Fluorescent labelling of accessible cell-surface thiols; settings: 50 μM for 10 minutes, then 10 μM atto 488 maleimide
Text: Next, the inventors wanted to explore other cysteine-selective reactions in this context. […] The inventors first wanted to confirm that there are addressable, surface-exposed thiols on cells. To that end, the inventors labelled cells with a cell-impermeable, maleimide-functionalized fluorophore (FIG. 20).

[7] = system: HeLa Kyoto cells transfected with EGFP-transmembrane-Halotag plasmid; assay: Halotag-tethering of CPP and delivery of NLS-mCherry-cR10 I; settings: 5 μM NLS-mCherry-cR10 I, 20 μM Halo-R10, 1 hour 37° C.
Description: The arrowheads indicate nucleation zones stained by both peptides. b, Time-lapse of the co-delivery of NLS-mCherry-R10 II together with the Maleimide-R10-Cy5 peptide 13 on HeLa Kyoto cells in cell medium. The arrowheads indicate nucleation zones and blue arrowheads the appearance of nucleolar staining of the mCherry. c, Cellular uptake of NLS-mCherry-cR10 I in presence of chloroalkane-modified “Halo-R10” 17 on HeLa Kyoto cells transfected with EGFP-transmembrane-Halotag plasmid, 1 hour at 37° C. in cell medium. SP: Signal peptide, TM: transmembrane sequence. […] Uptake experiments with peptides 16 and 18-20 in FIG. 26. Scale bars 20 μm.
Transfected cells were treated with 1 μM JF646-Halotag-Iigand (Promega). […] The arrowheads show nucleoli with mCherry fluorescence. See also main text FIG. 3. Scale bars 20 μm.
To elaborate this further, the inventors generated a plasmid that would lead to expression of an EGFP reporter inside transfected cells along with a Halotag (England, C. G., Luo, H. & Cai, W. HaloTag technology: a versatile platform for biomedical applications. Bioconjug Chem 26, 975-986, doi:10.1021/acs.bioconjchem.5b00191 (2015)) on the cell surface (simplified plasmid map in FIG. 3c, validation of the plasmid and additional controls in FIG. 28). […]

## CN[C@@H]1C[C@H]2O[C@@](C)([C@@H]1OC)n1c3ccccc3c3c4c(c5c6ccccc6n2c5c31)C(=O)NC4 [staurosporine]
HeLa CLL-2 cells
  effect on cellular metabolic activity (positive control): significant, detrimental effect

## NLS-mCherry-exR10 IV: recombinantly expressed mCherry with a C-terminal R10 peptide, SEQ ID NO: 3
Cells [1]; 5 μM alone
  uptake of recombinant CPP-fusion protein: predominantly endosomal uptake
Cells [1]; 5 μM with addition of peptide 5
  uptake of recombinant CPP-fusion protein: efficiently rescued

## N=C(N)NCCC[C@H](NC(=O)[C@H](CCCNC(=N)N)NC(=O)[C@H](CCCNC(=N)N)NC(=O)[C@H](CCCNC(=N)N)NC(=O)[C@H](CCCNC(=N)N)NC(=O)[C@H](CCCNC(=N)N)NC(=O)[C@H](CCCNC(=N)N)NC(=O)[C@H](CCCNC(=N)N)NC(=O)[C@H](CCCNC(=N)N)NC(=O)[C@H](CCCNC(=N)N)NC(=O)COCCOCCNC(=O)COCCOCCNC(=O)[C@@H](N)CS)C(N)=O [peptide 2]
HeLa Kyoto cells [2]
  staining after co-delivery: nuclear/nucleolar staining
Cells [3]; 5% serum or lower
  co-delivery efficiency in presence of serum: negligible effect on uptake
Cells [3]; 10% serum
  co-delivery efficiency in presence of serum: reduced efficiency
Cells [3]; NLS-mCherry-R10 II, serum
  performance in presence of serum compared with alkylated variant: performed significantly better than the alkylated variant 3
Cells [4]
  nucleolar mCherry in presence of endocytosis inhibitors: could detect nucleolar mCherry regardless of the inhibitor used
HeLa Kyoto cells [5]; 5 μM NLS-mCherry-R10 II with the CPP-additive
  cells with nucleolar red fluorescence: more than 90%
HeLa Kyoto cells [5]; 5 μM additive, 5 μM NLS-mCherry-R10
  nucleolar delivery of NLS-mCherry linked to linear R10 with linear CPP-additive: efficient nucleolar delivery
HeLa CCL-2 cells; 1 μM Cre-exR8 with 10 μM peptide vs alone, 5% serum
  expression of the Cre reporter: strong increase in expression of the Cre reporter
HeLa CCL-2 cells; Cre-exR8 in presence of additional peptide
  red fluorescence, epifluorescence microscopy: higher incidence of red fluorescence

## O=C(O)c1cc(SSc2ccc([N+](=O)[O-])c(C(=O)O)c2)ccc1[N+](=O)[O-] [Ellman's reagent, 5,5′-dithiobis-(2-nitrobenzoic acid)]
[6]
  labelling of cell-surface thiols by maleimide fluorophore after pre-treatment: Labelling is dramatically reduced

## 6-chlorohexanoic acid-PEG*-RRRRRRRRRR-Amide ({6‑chlorohexanoyl-AEEA-AEEA}-RRRRRRRRRR-NH2) [compound 17]
[7]
  nucleolar mCherry staining in transfected cells: mCherry in the nucleoli of EGFP-positive cells
